Data published in US11279733B2, “Peptide antibiotics” (priority 2017, dated 2022).
In brackets after ≈: the same amount, converted by molar mass. Like-named read-outs stand apart in the source and are kept apart here. Positions of bridges follow the written chain, without caps; N, C: chain ends. Non-standard residues stand in square brackets, D forms with d. Residues, ends and D or L forms follow the SMILES beside them. *: point of attachment. Decanoyl(3R-OH) = CCCCCCC[C@@H](O)CC(=O)*; dDab = NCC[C@@H](N)C(=O)O; dDap = NC[C@@H](N)C(=O)O; Dab = NCC[C@H](N)C(=O)O

Experiments:
[1] = test system: K. pneumoniae ATCC BAA-2146, NDM-1 pos; conditions: ATCC BAA-2146
Description: (§1) Bacteria were either obtained from American Type Culture Collection (ATCC; Manassas, Va., USA) or independent academic clinical isolate collections, as listed in Table 18 below. Bacteria were cultured in Nutrient broth (NB; Bacto Laboratories, catalogue No. 234000) or Mueller Hinton broth (MHB; Bacto Laboratories, catalogue No. 211443) at 37° C. overnight with shaking (˜180 RPM). A sample of each culture was then diluted 50-fold in fresh MHB and incubated at 37° C. for 2-3 h with shaking (˜180 RPM). Compound stock solutions were prepared as 0.64 mg/mL or 2.56 mg/mL in water. The compounds, at twice the final desired concentration, were serially diluted 2-fold across the wells of 96-well plates (Polystyrene, Corning, catalogue No. 3370). Mid-log phase bacterial cultures (after 2-3 h incubation) were diluted to a final concentration of 1×10^6 colony forming units (CFU)/mL, and 50 μL was added to each well giving a final cell density of 5×10^5 and a compound concentration range of 32 μg/mL to 0.015 μg/mL (128-0.06 μg/mL against P. aeruginosa PA9704).

K. pneumoniae ATCC 13883 = conditions: ATCC 13883
Description: as §1

[2] = test system: K. pneumoniae GN_106, PmxR; conditions: GN 106, PmxR
Description: as §1

A. baumannii GN_093 PmxR = conditions: GN 093 PmxR
Description: as §1

E. coli ATCC 25922 = conditions: ATCC 25922
Description: as §1

[3] = test system: S. aureus ATCC 25923, MSSA; conditions: ATCC 25923
Description: as §1

[4] = test system: P. aeruginosa GN_105, PmxR; conditions: GN 105, PmxR
Description: as §1

P. aeruginosa ATCC 27853 = conditions: ATCC 27853
Description: as §1

A. baumannii ATCC 19606 = conditions: ATCC 19606
Description: as §1

[5] = test system: K. pneumoniae GN_102 PmxR; conditions: GN 102 PmxR
Description: as §1

[6] = test system: K. pneumoniae ATCC 700603, MDR; conditions: ATCC 700603
Description: as §1

[7] = test system: P. aeruginosa GN_043, PmxR
Description: as §1

Row | SMILES | MIC K. pneumoniae ATCC BAA-2146, NDM-1 pos [1] [µg/mL] | MIC K. pneumoniae ATCC 13883 (K. pneumoniae ATCC 13883) [µg/mL] | MIC K. pneumoniae GN_106, PmxR [2] [µg/mL] | MIC A. baumannii GN_093 PmxR (A. baumannii GN_093 PmxR) [µg/mL] | MIC E. coli ATCC 25922 (E. coli ATCC 25922) [µg/mL] | MIC S. aureus ATCC 25923, MSSA [3] [µg/mL] | MIC P. aeruginosa GN_105, PmxR [4] [µg/mL] | MIC P. aeruginosa ATCC 27853 (P. aeruginosa ATCC 27853) [µg/mL] | MIC A. baumannii ATCC 19606 (A. baumannii ATCC 19606) [µg/mL] | MIC K. pneumoniae GN_102 PmxR [5] [µg/mL] | MIC K. pneumoniae ATCC 700603, MDR [6] [µg/mL] | MIC P. aeruginosa GN_043, PmxR ([7]; P. aeruginosa GN_043, PmxR) [µg/mL] | MIC, K. pneumoniae ATCC BAA-2146, NDM-1 pos [1] [µg/mL] | MIC P. aeruginosa GN_043, PmxR ([7]; Table 6, polymyxin-resistant) [µg/mL] | MIC, K. pneumoniae ATCC 13883 (K. pneumoniae ATCC 13883) [µg/mL] | MIC, E. coli ATCC 25922 (E. coli ATCC 25922) [µg/mL] | MIC, S. aureus ATCC 25923, MSSA [3] [µg/mL] | MIC, P. aeruginosa ATCC 27853 (P. aeruginosa ATCC 27853) [µg/mL] | MIC, A. baumannii ATCC 19606 (A. baumannii ATCC 19606) [µg/mL] | MIC, K. pneumoniae ATCC 700603, MDR [6] [µg/mL]
1 | CC(=O)N[C@H](CCN)C(=O)N[C@H]1CCNC(=O)[C@H](Cc2c[nH]c3ccccc23)NC(=O)[C@H](CCN)NC(=O)[C@H](CCN)NC(=O)[C@H](CC(C)C)NC(=O)[C@@H](Cc2ccccc2)NC(=O)[C@H](CCN)NC1=O [compound 8981, Ac-D-Dab-cyc[L-Dab-L-Dab-D-Phe-L-Leu-L-Dab-L-Dab-L-Trp]] (Ac-[dDab][Dab][Dab][dF]L[Dab][Dab]W; lactam 2-C) | 16 (≈ 16.2 µM) | >32 | >32 | 32 (≈ 32.3 µM) | 32 (≈ 32.3 µM) | >32 | >32 | 4 (≈ 4.04 µM) | >32 | >32 | 16 (≈ 16.2 µM) | – | – | – | – | – | – | – | – | –
2 | CCCCCCC[C@@H](O)CC(=O)N[C@H](CN)C(=O)N[C@H]1CCNC(=O)[C@H](CC(C)C)NC(=O)[C@H](CCN)NC(=O)[C@H](CCN)NC(=O)[C@H](CC(C)C)NC(=O)[C@@H](CC(C)C)NC(=O)[C@H](CCN)NC1=O [compound 8977, nC10-3(R)OH-D-Dap-(L-Dab-L-Dab-D-Leu-L-Leu-L-Dab-L-Dab-L-Leu)] ({Decanoyl(3R-OH)}-[dDap][Dab][Dab][dL]L[Dab][Dab]L; lactam 2-C) | 8 (≈ 8.03 µM) | 8 (≈ 8.03 µM) | 4 (≈ 4.01 µM) | 2 (≈ 2.01 µM) | 4 (≈ 4.01 µM) | 32 (≈ 32.1 µM) | 2 (≈ 2.01 µM) | 4 (≈ 4.01 µM) | 8 (≈ 8.03 µM) | 2 (≈ 2.01 µM) | 4 (≈ 4.01 µM) | 2 (≈ 2.01 µM) | – | – | – | – | – | – | – | –
3 | CCCCCCC[C@@H](O)CC(=O)N[C@@H](CCCCN)C(=O)N[C@H]1CCNC(=O)[C@H](CC(C)C)NC(=O)[C@H](CCN)NC(=O)[C@H](CCN)NC(=O)[C@H](CC(C)C)NC(=O)[C@@H](Cc2ccccc2)NC(=O)[C@H](CCN)NC1=O [compound 5562, 3(R)OH-nC9CO-L-Lys-cyc[L-Dab-L-Dab-D-Phe-L-Leu-L-Dab-L-Dab-L-Leu]] ({Decanoyl(3R-OH)}-K[Dab][Dab][dF]L[Dab][Dab]L; lactam 2-C) | – | – | 4 (≈ 3.73 µM) | 32 (≈ 29.8 µM) | – | – | >32 | – | – | 4 (≈ 3.73 µM) | – | – | 8 (≈ 7.46 µM) | 4 (≈ 3.73 µM) | 8 (≈ 7.46 µM) | 8 (≈ 7.46 µM) | 32 (≈ 29.8 µM) | 2 (≈ 1.86 µM) | >32 | 4 (≈ 3.73 µM)
4 | CCCCCCC[C@@H](O)CC(=O)N[C@H](Cc1c[nH]c2ccccc12)C(=O)N[C@H]1CCNC(=O)[C@H](CC(C)C)NC(=O)[C@H](CCN)NC(=O)[C@H](CCN)NC(=O)[C@H](CC(C)C)NC(=O)[C@@H](Cc2ccccc2)NC(=O)[C@H](CCN)NC1=O [compound 6441, 3(R)OH-nC9CO-D-Trp-cyc[L-Dab-L-Dab-D-Phe-L-Leu-L-Dab-L-Dab-L-Leu]] ({Decanoyl(3R-OH)}-[dW][Dab][Dab][dF]L[Dab][Dab]L; lactam 2-C) | – | – | 4 (≈ 3.54 µM) | 32 (≈ 28.3 µM) | – | – | 16 (≈ 14.2 µM) | – | – | 8 (≈ 7.08 µM) | – | – | 8 (≈ 7.08 µM) | 8 (≈ 7.08 µM) | 16 (≈ 14.2 µM) | 16 (≈ 14.2 µM) | 8 (≈ 7.08 µM) | 16 (≈ 14.2 µM) | 16 (≈ 14.2 µM) | 8 (≈ 7.08 µM)
